Assay results from patent US20240238423A9, “TETRAHYDROISOQUINOLINE HETEROBIFUNCTIONAL BCL-XL DEGRADERS” (Treeline Biosciences, Inc., priority 2022, published 2024).

Molecular target: T1, Human BCL-XL protein (N-terminal HiBiT tagged BCL-XL in HT1080 cells) (Homo sapiens, UniProt Q07817)
T1 construct: expressed in transfected cells; host or cells: HT-1080 (ATCC CCL-121), stably transduced with lentivirus pLV-UBC-N-HiBiT-BCL-XL-PGK-puro and selected with puromycin
Experiment: HiBiT based degradation assay
Assay type: cell-based
Settings: HT1080 cells expressing HiBiT-BCL-XL, 24 h; for Ymin (24 h): BCL-XL degradation normalized with DMSO control; for DC50: BCL-XL degradation, read-out: EC50 (24 h)
How it was run: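 This HiBiT degradation assay measured loss of BCL-XL in HT1080 cells that stably express an N-terminal HiBiT-BCL-XL fusion delivered by lentivirus. Cells were added to compound-spotted 384-well plates, and luminescence was read on a PHERAstar FSX reader. Signal was expressed relative to DMSO controls, curves were fitted by four-parameter logistic regression, and for hook-shaped curves the Ymin point served as the bottom plateau when calculating EC50.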

T1 sequence (Q07817 whole entry): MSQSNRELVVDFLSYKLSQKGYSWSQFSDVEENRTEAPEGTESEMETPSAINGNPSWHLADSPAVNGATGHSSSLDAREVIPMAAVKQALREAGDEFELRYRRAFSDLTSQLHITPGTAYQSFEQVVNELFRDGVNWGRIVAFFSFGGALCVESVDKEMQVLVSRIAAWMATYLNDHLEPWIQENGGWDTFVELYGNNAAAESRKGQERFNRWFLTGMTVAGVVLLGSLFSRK

| Structure (SMILES) | Ymin (24 h) | DC50 [nM] |
| --- | --- | --- |
| Cc1c(OCCCC2CCN(CCN3CCC(c4ccc5c(C6CCC(=O)NC6=O)nn(C)c5c4)CC3)CC2)cccc1-c1ccc(N2CCc3cccc(C(=O)Nc4nc5ccccc5s4)c3C2)nc1C(=O)O (stereo not drawn) [Compound 255, 6-[8-(1,3-benzothiazol-2-ylcarbamoyl)-3,4-dihydro-1H-isoquinolin-2-yl]-3-[3-[3-[1-[2-[4-[3-(2,6-dioxo-3-piperidyl)-1-methyl-indazol-6-yl]-1-piperidyl]ethyl]-4-piperidyl]propoxy]-2-methyl-phenyl]pyridine-2-carboxylic acid] | A (Ymin < 50%) | < 100 |
| Cc1c(OCCCC2CCN(CCN3CCC(c4cccc5c(C6CCC(=O)NC6=O)nn(C)c45)CC3)CC2)cccc1-c1ccc(N2CCc3cccc(C(=O)Nc4nc5ccccc5s4)c3C2)nc1C(=O)O (stereo not drawn) [Compound 256, 6-[8-(1,3-benzothiazol-2-ylcarbamoyl)-3,4-dihydro-1H-isoquinolin-2-yl]-3-[3-[3-[1-[2-[4-[3-(2,6-dioxo-3-piperidyl)-1-methyl-indazol-7-yl]-1-piperidyl]ethyl]-4-piperidyl]propoxy]-2-methyl-phenyl]pyridine-2-carboxylic acid] | A (Ymin < 50%) | < 100 |
| Cc1c(OCCCCC2CCN(CC3CCN(c4ccc5c(C6CCC(=O)NC6=O)nn(C)c5c4)CC3)CC2)cccc1-c1ccc(N2CCc3cccc(C(=O)Nc4nc5ccccc5s4)c3C2)nc1C(=O)O (stereo not drawn) [Compound 257, 6-[8-(1,3-benzothiazol-2-ylcarbamoyl)-3,4-dihydro-1H-isoquinolin-2-yl]-3-[3-[4-[1-[[1-[3-(2,6-dioxo-3-piperidyl)-1-methyl-indazol-6-yl]-4-piperidyl]methyl]-4-piperidyl]butoxy]-2-methyl-phenyl]pyridine-2-carboxylic acid] | A (Ymin < 50%) | < 100 |
| Cc1c(OCCC2CCN(CC3CCN(c4ccc5c(C6CCC(=O)NC6=O)nn(C)c5c4)CC3)CC2)cccc1-c1ccc(N2CCc3cccc(C(=O)Nc4nc5ccccc5s4)c3C2)nc1C(=O)O (stereo not drawn) [Compound 258, 6-[8-(1,3-benzothiazol-2-ylcarbamoyl)-3,4-dihydro-1H-isoquinolin-2-yl]-3-[3-[2-[1-[[1-[3-(2,6-dioxo-3-piperidyl)-1-methyl-indazol-6-yl]-4-piperidyl]methyl]-4-piperidyl]ethoxy]-2-methyl-phenyl]pyridine-2-carboxylic acid] | A (Ymin < 50%) | < 100 |
| Cc1c(OCCCN2CCN(CC3CCC4(CC3)CN(c3cccc5c(C6CCC(=O)NC6=O)nn(C)c35)C4)CC2)cccc1-c1ccc(N2CCc3cccc(C(=O)Nc4nc5ccccc5s4)c3C2)nc1C(=O)O (stereo not drawn) [Compound 260, 6-(8-(benzo[d]thiazol-2-ylcarbamoyl)-3,4-dihydroisoquinolin-2(1H)-yl)-3-(3-(3-(4-((2-(3-(2,6-dioxopiperidin-3-yl)-1-methyl-1H-indazol-7-yl)-2-azaspiro[3.5]nonan-7-yl)methyl)piperazin-1-yl)propoxy)-2-methylphenyl)picolinic acid] | A (Ymin < 50%) | < 100 |
| Cc1c(OCCC2CCN(CC3CCN(c4cccc5c(C6CCC(=O)NC6=O)nn(C)c45)CC3)CC2)cccc1-c1ccc(N2CCc3cccc(C(=O)Nc4nc5ccccc5s4)c3C2)nc1C(=O)O (stereo not drawn) [Compound 261, 6-[8-(1,3-benzothiazol-2-ylcarbamoyl)-3,4-dihydro-1H-isoquinolin-2-yl]-3-[3-[2-[1-[[1-[3-(2,6-dioxo-3-piperidyl)-1-methyl-indazol-7-yl]-4-piperidyl]methyl]-4-piperidyl]ethoxy]-2-methyl-phenyl]pyridine-2-carboxylic acid] | A (Ymin < 50%) | < 100 |
| Cc1cc(OCCCC2(C)CCN(CC(=O)Nc3ccc4c(C5CCC(=O)NC5=O)nn(C)c4c3)CC2)ccc1-c1ccc(N2CCc3cccc(C(=O)Nc4nc5ccccc5s4)c3C2)nc1C(=O)O (stereo not drawn) [Compound 264, 6-[8-(1,3-benzothiazol-2-ylcarbamoyl)-3,4-dihydro-1H-isoquinolin-2-yl]-3-[4-[3-[1-[2-[[3-(2,6-dioxo-3-piperidyl)-1-methyl-indazol-6-yl]amino]-2-oxo-ethyl]-4-methyl-4-piperidyl]propoxy]-2-methyl-phenyl]pyridine-2-carboxylic acid] | A (Ymin < 50%) | < 100 |
| Cc1cc(OCC2CC3(CCN(CC(=O)Nc4ccc5c(C6CCC(=O)NC6=O)nn(C)c5c4)CC3)C2)ccc1-c1ccc(N2CCc3cccc(C(=O)Nc4nc5ccccc5s4)c3C2)nc1C(=O)O (stereo not drawn) [Compound 265, 6-(8-(benzo[d]thiazol-2-ylcarbamoyl)-3,4-dihydroisoquinolin-2(1H)-yl)-3-(4-((7-(2-((3-(2,6-dioxopiperidin-3-yl)-1-methyl-1H-indazol-6-yl)amino)-2-oxoethyl)-7-azaspiro[3.5]nonan-2-yl)methoxy)-2-methylphenyl)picolinic acid] | A (Ymin < 50%) | < 100 |
| Cc1c(OCCCC2(C)CCN(CC(=O)Nc3ccc4c(C5CCC(=O)NC5=O)nn(C)c4c3)CC2)cccc1-c1ccc(N2CCc3cccc(C(=O)Nc4nc5ccccc5s4)c3C2)nc1C(=O)O (stereo not drawn) [Compound 267, 6-[8-(1,3-benzothiazol-2-ylcarbamoyl)-3,4-dihydro-1H-isoquinolin-2-yl]-3-[3-[3-[1-[2-[[3-(2,6-dioxo-3-piperidyl)-1-methyl-indazol-6-yl]amino]-2-oxo-ethyl]-4-methyl-4-piperidyl]propoxy]-2-methyl-phenyl]pyridine-2-carboxylic acid] | A (Ymin < 50%) | < 100 |

More lines, now with the values ahead:

| Ymin (24 h) | DC50 [nM] | Structure (SMILES) |
| --- | --- | --- |
| B (50% ≤ Ymin < 70%) | 100 to 1000 | Cc1c(O[C@H]2CC[C@H](CCC(=O)N3CCC(c4cccc5c(C6CCC(=O)NC6=O)nn(C)c45)CC3)CC2)cccc1-c1ccc(N2CCc3cccc(C(=O)Nc4nc5ccccc5s4)c3C2)nc1C(=O)O (stereo partly drawn) [Compound 253a, 6-(8-(benzo[d]thiazol-2-ylcarbamoyl)-3,4-dihydroisoquinolin-2(1H)-yl)-3-(3-(((1r,4r)-4-(3-(4-(3-(2,6-dioxopiperidin-3-yl)-1-methyl-1H-indazol-7-yl)piperidin-1-yl)-3-oxopropyl)cyclohexyl)oxy)-2-methylphenyl)picolinic acid] |
| A (Ymin < 50%) | < 100 | Cc1cc(O[C@H]2CC[C@H](CCCN3CCN(c4ccc5c(C6CCC(=O)NC6=O)nn(C)c5c4)CC3)CC2)ccc1-c1ccc(N2CCc3cccc(C(=O)Nc4nc5ccccc5s4)c3C2)nc1C(=O)O (stereo partly drawn) [Compound 254a, 6-(8-(benzo[d]thiazol-2-ylcarbamoyl)-3,4-dihydroisoquinolin-2(1H)-yl)-3-(4-(((1s,4r)-4-(3-(4-(3-(2,6-dioxopiperidin-3-yl)-1-methyl-1H-indazol-6-yl)piperazin-1-yl)propyl)cyclohexyl)oxy)-2-methylphenyl)picolinic acid] |
| A (Ymin < 50%) | < 100 | Cc1c(O[C@H]2CC[C@H](CCC(=O)N3CCC(c4ccc5c(C6CCC(=O)NC6=O)nn(C)c5c4)CC3)CC2)cccc1-c1ccc(N2CCc3cccc(C(=O)Nc4nc5ccccc5s4)c3C2)nc1C(=O)O (stereo partly drawn) [Compound 259a, 6-(8-(benzo[d]thiazol-2-ylcarbamoyl)-3,4-dihydroisoquinolin-2(1H)-yl)-3-(3-(((1r,4r)-4-(3-(4-(3-(2,6-dioxopiperidin-3-yl)-1-methyl-1H-indazol-6-yl)piperidin-1-yl)-3-oxopropyl)cyclohexyl)oxy)-2-methylphenyl)picolinic acid] |
| A (Ymin < 50%) | < 100 | Cc1c(O[C@H]2CC[C@H](CCCN3CCC(c4ccc5c(C6CCC(=O)NC6=O)nn(C)c5c4)CC3)CC2)cccc1-c1ccc(N2CCc3cccc(C(=O)Nc4nc5ccccc5s4)c3C2)nc1C(=O)O (stereo partly drawn) [Compound 269a, 6-(8-(benzo[d]thiazol-2-ylcarbamoyl)-3,4-dihydroisoquinolin-2(1H)-yl)-3-(3-(((1s,4r)-4-(3-(4-(3-(2,6-dioxopiperidin-3-yl)-1-methyl-1H-indazol-6-yl)piperidin-1-yl)propyl)cyclohexyl)oxy)-2-methylphenyl)picolinic acid] |
| A (Ymin < 50%) | < 100 | Cc1c(O[C@H]2CC[C@H](CCCN3CCC(c4cccc5c(C6CCC(=O)NC6=O)nn(C)c45)CC3)CC2)cccc1-c1ccc(N2CCc3cccc(C(=O)Nc4nc5ccccc5s4)c3C2)nc1C(=O)O (stereo partly drawn) [Compound 270a, 6-(8-(benzo[d]thiazol-2-ylcarbamoyl)-3,4-dihydroisoquinolin-2(1H)-yl)-3-(3-(((1s,4r)-4-(3-(4-(3-(2,6-dioxopiperidin-3-yl)-1-methyl-1H-indazol-7-yl)piperidin-1-yl)propyl)cyclohexyl)oxy)-2-methylphenyl)picolinic acid] |
| A (Ymin < 50%) | < 100 | Cc1c(O[C@H]2CC[C@H](CCCN3CCN(c4ccc5c(C6CCC(=O)NC6=O)nn(C)c5c4)C[C@H]3C)CC2)cccc1-c1ccc(N2CCc3cccc(C(=O)Nc4nc5ccccc5s4)c3C2)nc1C(=O)O (stereo partly drawn) [Compound 273a, 6-(8-(benzo[d]thiazol-2-ylcarbamoyl)-3,4-dihydroisoquinolin-2(1H)-yl)-3-(3-(((1S,4r)-4-(3-((2R)-4-(3-(2,6-dioxopiperidin-3-yl)-1-methyl-1H-indazol-6-yl)-2-methylpiperazin-1-yl)propyl)cyclohexyl)oxy)-2-methylphenyl)picolinic acid] |
